# According to publication PMC7587601, “A Rose Extract Protects the Skin against Stress Mediators: A Potential Role of Olfactory Receptors” (Molecules, 2020):
# Experiments:
# Type in all cases: cell-based, human
# Conditions in all cases: epinephrine 56 nM alone, 9 days
# loricrin = test: Epinephrine-induced stress model in skin explants, loricrin immunostaining
# Experimental: (§1) To study the potential involvement of ORs in skin response to chronic stress, an ex vivo epinephrine-induced stress model was designed. Three different markers, known to increase under stress conditions, were measured to estimate the stress response of skin (Figure 3A). G6PDH was used as a marker for cell metabolism, loricrin for cell differentiation, and γH2AX for DNA damage.
# (§2) For immunohistochemical staining on human skin, 5-μm-thick sections were made. The same primary antibodies were used (anti-OR10A6 (1:200; Abcam, #ab129837), anti-OR11H4 (1:200; ThermoFisher, #PA5-562685), anti-OR2AG2 (1:100; ThermoFisher, #PA5-538166)). […] Image processing was performed using ImageJ 2.0 software. For primary G6PDH (1:100 dilution; Sigma Aldrich, St. Louis, MO, USA, #HPA000247), loricrine (1:1600 dilution; Covance, Princeton, NJ, USA, #PRB-145P), γH2AX (1:800; Abcam, Cambridge, UK, #ab26350) antibodies staining, tissue cryosections were […] and immunostaining was performed using an automated slide processing system (Autostainer Dako, Agilent, Santa Clara, CA, USA). […] Microscopical observations were realized using an Olympus BX43 microscope. Photographs were digitized with a numeric DP72 Olympus camera and CellD storing software (Waltham, MA, USA). The detailed protocols were described in the supplementary materials. […]
# γH2AX = test: Epinephrine-induced stress model in skin explants, γH2AX immunostaining
# Experimental: as §1, §2
# G6PDH = test: Epinephrine-induced stress model in skin explants, G6PDH immunostaining
# Experimental: as §1, §2
# OR10A6 mRNA = OR10A6 mRNA expression in skin explants (RT-qPCR)
# Experimental: (§3) For NHEKs, total RNA was isolated and purified using RNeasy Mini Kit (Qiagen, Hilden, Germany, #74104) following the manufacturer’s protocol. For RNA extraction from skin sections, Trizol (ThermoFisher, Waltham, MA, USA, #15596026) was used following the manufacturer’s protocol. Purity was determined with commercial Agilent kit RNA 6000 Nano Kit (Agilent, Santa Clara, CA, USA, #5067-1511) using Agilent 2100 Bioanalyzer according to the manufacturer’s recommendations and the concentration was quantified with a Nanodrop 2000c (ThermoFisher, Waltham, MA, USA). Real-time quantitative polymerase chain reaction (qRT-PCR) was run in triplicate using TaqMan™ Fast Advanced Master Mix (ThermoFisher, Waltham, MA, USA, #4444557) and gene Expression Assay transcripts (ThermoFisher, Waltham, MA, USA) on the AriaMx Real-time PCR System (Agilent, Santa Clara, CA, USA) according to the manufacturer’s recommendations. Real-time quantification plots and Ct values were collected and stored in AriaMx software (version 2.1). […]
# (§4) Human skin explants were recovered from the abdominal tissue of a person and kept in a culture medium at 37 °C, under 5% CO2. […] Each condition was evaluated on 3 different explants and compared to control (untreated explant). […]
# (§5) System (Agilent) according to the manufacturer’s recommendations. Real-time quantification plots and Ct values were collected and stored in AriaMx software. […]
# OR2AG2 mRNA = OR2AG2 mRNA expression in skin explants (RT-qPCR)
# Experimental: as §3, §4, §5
# OR11H4 mRNA = OR11H4 mRNA expression in skin explants (RT-qPCR)
# Experimental: as §3, §4, §5
# OR10A6 protein = OR10A6 protein expression in skin explants (immunohistochemistry)
# Experimental: (§6) For immunohistochemical staining on human skin, 5-μm-thick sections were made. The same primary antibodies were used (anti-OR10A6 (1:200; Abcam, #ab129837), anti-OR11H4 (1:200; ThermoFisher, #PA5-562685), anti-OR2AG2 (1:100; ThermoFisher, #PA5-538166)). […] Image processing was performed using ImageJ 2.0 software. […]
# as §4
# (§7) mounting medium (Santa Cruz, UltraCruz Mounting Medium # sc-24941). […] Cells were observed using a Zeiss microscope and images were analyzed with ImageJ 2.0 software. […]
# (§8) observations were realized using an Olympus BX43 microscope. […] Quantification of the proteins of interest (stained purple) was performed through microscopic observation and image analysis. Results were expressed as a percentage of untreated control explants. The relative change (Δ%) between the two tested conditions was also calculated. […]
# (§9) AlexaFluor 546 (ThermoFisher, #A11035) goat anti-rabbit IgG secondary antibody, diluted in 1:800 in PBS 1X with 1% BSA, for 1h at room temperature. […] The green channel was used to quantify the fluorescence resulting from OR labelling in the same region. […]
# OR2AG2 protein = OR2AG2 protein expression in skin explants (immunohistochemistry)
# Experimental: as §6, §4, §7, §8, §9
# OR11H4 protein = OR11H4 protein expression in skin explants (immunohistochemistry)
# Experimental: as §6, §4, §7, §8, §9
smiles,measurement,setting,value
CNC[C@H](O)c1ccc(O)c(O)c1 [epinephrine],"loricrin expression, fold change",loricrin,2.3 ± 1.17
same,"γH2AX expression, fold change",γH2AX,1.7 ± 0.47
same,"G6PDH expression, fold change",G6PDH,1.26 ± 0.19
same,"OR10A6 mRNA level, fold change",OR10A6 mRNA,0.45 ± 0.2
same,"OR2AG2 mRNA level, fold change",OR2AG2 mRNA,0.51 ± 0.3
same,"OR11H4 mRNA level, fold change",OR11H4 mRNA,0.52 ± 0.2
same,"OR10A6 protein expression, relative intensity staining",OR10A6 protein,0.77 ± 0.34
same,"OR2AG2 protein expression, relative intensity staining",OR2AG2 protein,0.81 ± 0.15
same,OR11H4 protein expression,OR11H4 protein,No change
